A word on the IC50: it is the midpoint of a concentration-inhibition curve.

Consider 21 molecules from paper PMC7155212 (Journal of Enzyme Inhibition and Medicinal Chemistry, 2020).

SMILES strings stand for the structures. Several values for one entry are separate records, joined by “and”; a condition that tells them apart may be missing. Equal values may be shown once. Read-outs that look alike come from different tables or passages of the source. Some results are limits rather than exact numbers.

Assay [1] in a line: In vitro antioxidant activity (DPPH radical scavenging). As to conditions: DPPH free radical scavenging, 30 min at 37 °C, mean ± SD (n = 3). The procedure:
The assay provides an assessment of the antioxidant activity due to free radical scavenging by measuring hydrogen atom (or one electron) donating activity. DPPH is a purple stable free radical that is reduced to a yellow-coloured diphenylpicryl hydrazine by an antioxidant. The spectrophotometric assay was carried out as described by the literature method with a slight modification. 100 μL of a sample solution was added to 100 μL of DPPH solution. Following 30 min of incubation at 37 °C and protection from light, the absorbance at 517 nm was determined using a microplate reader. Each group was measured three times in parallel to average. IC50 values were calculated. The percentage of DPPH radical scavenging rate of the target compound is calculated as follows: DPPH free radical scavenging effect (%)=[A0 – (A1−A2)]/A0×100% where A0 is the absorbance of blank group; A1 is the absorbance of sample group; A2 is the absorbance of sample blank group.
For orientation: Loss of DPPH colour is used to gauge radical scavenging.

In the next assay the target is T1, MAO-B (Rattus norvegicus, UniProt P19643).
T1 construct: The crude enzyme was extracted from the liver of 200–250 g of Wistar rats; from tissue; host or cells: liver of Wistar rats (crude enzyme)
T1 sequence (P19643 1-520): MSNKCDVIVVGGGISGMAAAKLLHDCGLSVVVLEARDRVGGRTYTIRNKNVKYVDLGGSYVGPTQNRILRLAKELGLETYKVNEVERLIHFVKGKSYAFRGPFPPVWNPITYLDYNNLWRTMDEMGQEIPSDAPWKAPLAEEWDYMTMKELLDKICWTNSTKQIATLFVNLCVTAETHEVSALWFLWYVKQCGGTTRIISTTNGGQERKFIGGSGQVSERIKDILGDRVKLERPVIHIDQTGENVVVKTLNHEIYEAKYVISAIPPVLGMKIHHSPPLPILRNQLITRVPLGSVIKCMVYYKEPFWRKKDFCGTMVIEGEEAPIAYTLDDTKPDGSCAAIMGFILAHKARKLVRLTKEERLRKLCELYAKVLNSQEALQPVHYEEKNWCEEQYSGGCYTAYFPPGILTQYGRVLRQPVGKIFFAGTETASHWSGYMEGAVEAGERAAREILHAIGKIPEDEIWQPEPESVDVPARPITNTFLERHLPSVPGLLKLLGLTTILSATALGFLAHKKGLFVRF
Briefly: In vitro MAO inhibitory activity (Holt method, crude enzyme from rat liver). In kind it is biochemical, Wistar rat. The procedure:
The MAO inhibitory activity of the 3-arylbenzofuranone compounds was determined by the method of Holt et al.[17] with slight modifications. The crude enzyme was extracted from the liver of 200–250 g of Wistar rats according to literature methods[18]^,[19]. The crude enzyme protein content was determined by the Bradford method using a Bradford Protein Assay Kit (Beyotime). The assay was performed in 0.2 M potassium phosphate buffer pH 7.6 on 96-well plates in 240 μl total volume. The chromogenic solution containing 1 mM vanillic acid, 0.5 mM 4-aminoantipyrine, and 4 U/ml horseradish peroxidase in 0.2 M potassium phosphate buffer pH 7.6 was mixed anew for each measurement. 40 μL of enzyme solution and 40 μL of sample solution were added to a 96-well plate. The solution was then incubated at 37 °C for 20 min. 120 μL of the 4-(trifluoromethyl) benzylamine solution and 40 μL of the chromogenic solution were added subsequently and incubated at 37 °C for 90 min. The absorbance was measured at 490 nm using a microplate reader, and the inhibition rate of MAO and the IC50 value of each sample were calculated according to the formula. The control group replaced the sample solution with PBS (0.2 M, pH = 7.6), the positive control replaced the sample with the positive drug, and the blank group replaced the substrate with PBS, and each group was measured three times in parallel to average. Monoamine oxidase inhibitory effect (%) = [(AC – AB) – (AS – ASB )]/(AC – AB)×100% where AC is the absorbance of control group; AB is the absorbance of blank group; AS is the absorbance of sample group; ASB is the absorbance of sample blank group.

For the next assay, the target named is BChE from equine serum (Equus caballus, UniProt P81908). Briefly: biochemical. The format is biochemical. The procedure: (§1) The anticholinesterase activity of the 3-arylbenzofuranone compounds was determined by the method of Ellman et al.[16] with slight modifications. […] Acetylthiocholine iodide and butyrylthiocholine iodide were used as substrates respectively. 5,5′-Dithiobis(2-nitrobenzoic acid) (DTNB) was used as the chromophoric reagent. To a 96-well plate, 120 µL of phosphate buffer solution (0.1 M, pH = 8.0, PBS), 20 µL of DTNB (3.3 mM in 0.1 M PBS, pH = 8.0) were added sequentially, 20 µL AChE solution (0.2 U/mL in 0.1 M PBS, pH = 8.0), 20 µL of different concentrations of the sample solution, shaken well, and incubated at 37 °C for 5 min. Then, 20 µL of substrate (5 mM in 0.1 M PBS, pH = 8.0) were added, shaken well, and incubated at 37 °C for 20 min. […] BChE inhibitory activity was assessed similarly using butyrylthiocholine iodide as the substrate. The sample solution was set to five concentration gradients and the experiment was repeated three times. […] Cholinesterase inhibitory effect (%)=[A0−(A1−A2)]/A0×100% where A0 is the absorbance of blank group; A1 is the absorbance of sample group; A2 is the absorbance of sample blank group.

The target of the next assay is AChE from electric eel (Electrophorus electricus, UniProt O42275). The assay can be described thus: biochemical. In kind it is biochemical. Particulars: Ellman method, mean ± SD (n = 3). As for the experimental part:
as §1

[2] abbreviates: rat liver crude enzyme, 4-(trifluoromethyl)benzylamine substrate, mean ± SD (n = 3), read-out: IC50 value MAO-B inhibitory activity.
Where [3] appears, read: equine serum BChE, Ellman method, mean ± SD (n = 3), read-out: IC50 value BuChE inhibitory activity.
Setting [4] is: read-out: IC50 value AChE inhibitory activity.
Where [5] appears, read: IC50 value AChE inhibitory activity.

Chain of AChE from electric eel (O42275 24-633): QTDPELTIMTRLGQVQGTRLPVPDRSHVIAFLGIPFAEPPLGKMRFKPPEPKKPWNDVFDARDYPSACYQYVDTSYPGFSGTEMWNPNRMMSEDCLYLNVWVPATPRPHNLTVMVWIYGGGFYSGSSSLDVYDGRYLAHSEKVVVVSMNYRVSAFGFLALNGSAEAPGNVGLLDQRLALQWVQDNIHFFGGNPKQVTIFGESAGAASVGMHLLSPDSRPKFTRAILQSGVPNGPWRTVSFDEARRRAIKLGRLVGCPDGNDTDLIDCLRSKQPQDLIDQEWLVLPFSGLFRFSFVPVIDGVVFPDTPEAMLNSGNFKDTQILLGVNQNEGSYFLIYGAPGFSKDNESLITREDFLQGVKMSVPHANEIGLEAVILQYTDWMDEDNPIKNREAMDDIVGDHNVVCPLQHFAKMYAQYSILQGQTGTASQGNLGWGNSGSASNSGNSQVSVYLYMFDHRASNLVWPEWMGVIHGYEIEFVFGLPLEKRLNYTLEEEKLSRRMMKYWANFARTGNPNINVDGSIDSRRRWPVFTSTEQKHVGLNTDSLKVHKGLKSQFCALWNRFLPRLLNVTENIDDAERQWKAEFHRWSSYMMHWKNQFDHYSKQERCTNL
Chain of BChE from equine serum (P81908 whole entry): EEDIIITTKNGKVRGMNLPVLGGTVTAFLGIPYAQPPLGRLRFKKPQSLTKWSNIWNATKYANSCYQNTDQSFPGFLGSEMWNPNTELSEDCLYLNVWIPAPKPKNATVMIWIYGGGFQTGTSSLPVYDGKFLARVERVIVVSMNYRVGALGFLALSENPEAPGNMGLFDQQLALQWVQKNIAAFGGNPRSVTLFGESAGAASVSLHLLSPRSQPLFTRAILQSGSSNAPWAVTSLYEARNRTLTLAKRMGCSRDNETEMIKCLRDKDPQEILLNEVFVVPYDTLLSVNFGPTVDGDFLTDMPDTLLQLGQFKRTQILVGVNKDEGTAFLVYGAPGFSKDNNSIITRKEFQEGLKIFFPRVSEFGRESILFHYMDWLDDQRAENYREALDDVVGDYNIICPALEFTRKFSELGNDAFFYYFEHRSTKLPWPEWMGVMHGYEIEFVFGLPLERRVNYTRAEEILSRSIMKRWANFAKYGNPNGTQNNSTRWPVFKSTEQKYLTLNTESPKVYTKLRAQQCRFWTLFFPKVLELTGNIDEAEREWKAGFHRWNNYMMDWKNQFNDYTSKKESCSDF

With `O=C1O[C@H]([C@@H](O)CO)C(O)=C1O` [Ascorbic acid, reference compound], 7.69 ± 0.1 µM corresponded to half-maximal inhibition in assay [1] (IC50).
Turning to `COc1ccc(C2C(=O)Oc3cc(O)ccc32)cc1` (stereo not drawn) [Compound 1, 6-Hydroxyl-3–(4′-methoxyphenyl)-benzofuranone], the IC50 at MAO-B (setting [2]) is 61.3 ± 0.79 µM; in assay [1] it was 13.3 ± 0.27 µM; on BChE from equine serum (setting [3]), > 200 µM; on AChE from electric eel (setting [4]), 50.6 ± 3.12 µM.
For the molecule `COc1ccc(C2C(=O)Oc3ccc(O)cc32)cc1` (stereo not drawn) [Compound 2, 5-Hydroxyl-3–(4′-methoxyphenyl)-benzofuranone], the IC50 was 14.7 ± 0.78 µM at MAO-B (setting [2]), > 100 µM in assay [1] and 4.15 ± 1.02 µM on AChE from electric eel (setting [4]).
For the molecule `COc1ccc(C2C(=O)Oc3cc(OC)ccc32)cc1` (stereo not drawn) [Compound 3, 6-Methoxy-3–(4′-methoxyphenyl)-benzofuranone], the half-inhibitory concentration (IC50) at MAO-B (setting [2]) is 298 ± 5.4 µM; in assay [1] it was 11.8 ± 0.18 µM; at BChE from equine serum (setting [3]), > 200 µM; at AChE from electric eel (setting [4]) it was 80.5 ± 3.41 µM.
For `COc1ccc(C2C(=O)Oc3ccc(OC)cc32)cc1` (stereo not drawn) [Compound 4, 5-Methoxy-3–(4′-methoxyphenyl)-benzofuranone], the IC50 was 383 ± 5.08 µM at MAO-B (setting [2]); 33.1 ± 1.45 µM in assay [1]; > 200 µM at BChE from equine serum (setting [3]); < 1 µM and 0.74 µM at AChE from electric eel (setting [4]).
As to `COc1ccc(C2C(=O)Oc3c2ccc(O)c3O)cc1` (stereo not drawn) [Compound 5, 6,7-Dihydroxy-3–(4′-methoxyphenyl)-benzofuranone], the IC50 at MAO-B (setting [2]) was 22.48 ± 0.22 µM; in assay [1], 5.51 ± 0.2 µM; at BChE from equine serum (setting [3]), > 200 µM.
On to `COc1ccc(C2C(=O)Oc3cc(O)ccc32)cc1OC` (stereo not drawn) [Compound 6, 6-Hydroxy-3–(3′,4′-dimethoxyphenyl)-benzofuranone], for which the values for the half-inhibitory concentration (IC50) at MAO-B (setting [2]), at BChE from equine serum (setting [3]) and on AChE from electric eel (setting [4]) were 48.6 ± 2.02 µM, > 200 µM and 24.4 ± 1.21 µM, respectively.
Take `COc1ccc(C2C(=O)Oc3cc(OC)c(O)cc32)cc1` (stereo not drawn) [Compound 7, 5-Hydroxy-6-methoxy-3–(4′-methoxyphenyl)-benzofuranone]: the IC50 at MAO-B (setting [2]) was 91.13 ± 0.7 µM; in assay [1], 2.62 ± 0.21 µM; at BChE from equine serum (setting [3]), 32.9 ± 0.76 µM; at AChE from electric eel (setting [4]) it was < 1 µM and 0.52 µM.
For the molecule `COc1ccc(C2C(=O)Oc3c2ccc(OC)c3O)cc1` (stereo not drawn) [Compound 8, 6-Methoxy-7-hydroxy-3–(4′-methoxyphenyl)-benzofuranone], the concentration for half-maximal inhibition (IC50) at MAO-B (setting [2]) is 40.6 ± 1.92 µM; in assay [1] it was 5.96 ± 0.14 µM; on BChE from equine serum (setting [3]) it was > 200 µM; at AChE from electric eel (setting [4]), 9.24 ± 0.62 µM.
Regarding `COc1ccc2c(c1)OC(=O)C2c1ccc(OC)c(OC)c1` (stereo not drawn) [Compound 9, 6-Methoxy-3–(3′,4′-dimethoxyphenyl)-benzofuranone], the IC50 is 354 ± 5.05 µM on MAO-B, 17.2 ± 0.58 µM in assay [1], > 200 µM against BChE from equine serum and 0.35 ± 0.03 µM on AChE from electric eel (setting [5]).
In the case of `COc1ccc(C2C(=O)Oc3cc(OC)c(OC)cc32)cc1` (stereo not drawn) [Compound 10, 5,6-Dimethoxy-3–(4′-methoxyphenyl)-benzofuranone], the IC50 was 493 ± 7.1 µM on MAO-B (setting [2]), 13.89 ± 0.11 µM in assay [1], > 200 µM on BChE from equine serum (setting [3]) and 28.7 ± 1.44 µM at AChE from electric eel (setting [4]).
In the case of `COc1cc(C2C(=O)Oc3cc(O)ccc32)cc(OC)c1OC` (stereo not drawn) [Compound 11, 6-Hydroxy-3–(3′,4′,5′-trimethoxyphenyl)-benzofuranone], the IC50 at MAO-B (setting [2]) is 38.6 ± 0.42 µM; in assay [1] it was 11.2 ± 0.24 µM; at BChE from equine serum (setting [3]), > 200 µM; at AChE from electric eel (setting [4]), 48.24 ± 0.34 µM.
`COc1ccc(C2C(=O)Oc3c2ccc(OC)c3O)cc1OC` (stereo not drawn) [Compound 12, 6-Methoxy-7-hydroxy-3–(3′,4′-dimethoxyphenyl)-benzofuranone]: the 50% inhibitory concentration (IC50) is 22.9 ± 0.73 µM on MAO-B (setting [2]), 1.6 ± 0.1 µM in assay [1], 180.9 ± 1.48 µM on BChE from equine serum (setting [3]) and 5.25 ± 0.44 µM at AChE from electric eel (setting [4]).
In the case of `COc1cc(C2C(=O)Oc3ccc(O)cc32)cc(OC)c1OC` (stereo not drawn) [Compound 14, 5-Hydroxy-3–(3′,4′,5′-trimethoxyphenyl)-benzofuranone], the IC50 worked out at 69.7 ± 1.26 µM at MAO-B (setting [2]), 5.11 ± 0.13 µM in assay [1], 128 ± 4.65 µM at BChE from equine serum (setting [3]) and 3.37 ± 0.17 µM at AChE from electric eel (setting [4]).
On the same counts, the results for `COc1ccc2c(c1)C(c1cc(OC)c(OC)c(OC)c1)C(=O)O2` (stereo not drawn) [Compound 15, 5-Methoxy-3–(3′,4′,5′-trimethoxyphenyl)-benzofuranone] are 215 ± 2.27 µM, 32.6 ± 0.42 µM, > 200 µM and 2.54 ± 0.19 µM.
As to `COc1ccc2c(c1)OC(=O)C2c1cc(OC)c(OC)c(OC)c1` (stereo not drawn) [Compound 16, 6-Methoxy-3–(3′,4′,5′-trimethoxyphenyl)-benzofuranone], the half-inhibitory concentration (IC50) at MAO-B (setting [2]) was > 500 µM; in assay [1] it was 18 ± 0.48 µM; at BChE from equine serum (setting [3]), > 200 µM; on AChE from electric eel (setting [4]), 4.07 ± 0.19 µM.
On the same counts, the results for `COc1ccc2c(c1)C(c1ccc(OC)c(OC)c1OC)C(=O)O2` (stereo not drawn) [Compound 17, 5-Methoxy-3–(2′,3′,4′-trimethoxyphenyl)-benzofuranone] are 82.7 ± 1.31 µM, 29.2 ± 0.31 µM, > 200 µM and 42.3 ± 4.01 µM.
The like results for `COc1ccc2c(c1)OC(=O)C2c1ccc(OC)c(OC)c1OC` (stereo not drawn) [Compound 18, 6-Methoxy-3–(2′,3′,4′-trimethoxyphenyl)-benzofuranone] were, in that order, 180.3 ± 1.32 µM, 64.5 ± 1.29 µM, > 200 µM and 124 ± 2.17 µM.
For `COc1ccc(C2C(=O)Oc3cc(OC)c(OC)cc32)cc1OC` (stereo not drawn) [Compound 19, 5,6-Dimethoxy-3–(3′,4′-dimethoxyphenyl)-benzofuranone], the IC50 against MAO-B was 146 ± 1.83 µM; in assay [1], 12.6 ± 0.14 µM; against BChE from equine serum, > 200 µM; against AChE from electric eel (setting [5]), 36.5 ± 0.51 µM.
As for `COc1cc(C2C(=O)Oc3c2ccc(O)c3O)cc(OC)c1OC` (stereo not drawn) [Compound 20, 6,7-Dihydroxy−3–(3′,4′,5′-trimethoxyphenyl)-benzofuranone], the IC50 on MAO-B (setting [2]) is 149 ± 3.39 µM; in assay [1], 42.6 ± 2.58 µM; on BChE from equine serum (setting [3]) it was > 200 µM; at AChE from electric eel (setting [4]), 0.089 ± 0.01 µM.
On the same counts, the results for `COc1cc2c(cc1O)C(c1cc(OC)c(OC)c(OC)c1)C(=O)O2` (stereo not drawn) [Compound 21, 5-Hydroxy-6-methoxy-3–(3′,4′,5′-trimethoxyphenyl)-benzofuranone] are > 500 µM, 5.35 ± 0.33 µM, 146 ± 3.05 µM and 2.38 ± 0.2 µM.
